Test results taken from patent publication US20060281813A1, “Methods of treating hyperproliferative cell disorders” (priority 2003, published 2006).

Tests used:
[1] = test system: acute lymphoblastic leukemia; assay: Example 1: patient with relapsed acute lymphoblastic leukemia; assay type: in vivo, human
Protocol: A person was diagnosed with acute lymphoblastic leukemia. […] 15 received a chemotherapy induction regimen of eight cycles of Hyper-CVAD which consists of the following: Cyclophosphamide 300 mg/mn^2 intravenously (IV) over 3 hours every 12 hours for six doses on days 1 through 3, with mesna at the same total dose as cyclophosphamide but given bycontinuous infusion starting with cyclophosphamide and ending 6 hours after the last dose; vincristine 2 mg IV days 4 and 11; doxorubicin 50 mg/^2 IV day 4; and dexamethasone 40 mg daily on days 1 through 4 and 11 through 14.
In addition, high dose methotrexate-cytarabine (ara-c) was used as follows: MTX (methotrexate) 200 mg/m^2 IV over 2 hours followed by 800 mg/m^2 IV over 24 hours on day 1; citrovorum factor rescue starting 24 hours after completion of MTX infusion at 15 mg every 6 hours x 8, and increased to 50 mg every 6 hours if MTX levels were more 25 than 20 ,upmol/L at the end of the infuision, more than 1 μμmol/L 24 hours later, or more than 0.1 μμmol/L48 hours after the end of MTX infusion, until levels were lower than 0.1μμM; ara-C (cytarabine) […] over 2 hours every 12 hours ×4 on days 2 and 3; and methylprednisolone 50 mg IV twice daily on days 1 through 3.
About a year later, they relapsed with the presence of cancer cells in blood and bone marrow. Thereafter, they underwent a salvage chemotherapy regimen of FLAG (fludarabine, ara-c and G-CSF) with the following doses: fludarabine 30 mg/m^2lday for 5 days; ara-C (cytarabine) 2 g/m^2/day for 5 days (FLAG); and G-CSF (neupogen or granulocyte colony stimulating factor) 400 micrograms/m^2/day. […] They were then given the same salvage regimen plus a daily oral dose of 4-oxo-retinol at 150 mg per day for 28 days. […] This remission lasted for one month before relapse.
The same salvage regimen was repeated with oral administration of4-oxo-retinol (75 mg per day for 18 days) in addition to a daily dose of calcitriol (50 mcg per day concomitant with the administration of 4-oxo-retinol).

human RARα = biological target: T1, human RARα (Homo sapiens, UniProt P10276); settings: cited from earlier work
T1 sequence (P10276 1-462): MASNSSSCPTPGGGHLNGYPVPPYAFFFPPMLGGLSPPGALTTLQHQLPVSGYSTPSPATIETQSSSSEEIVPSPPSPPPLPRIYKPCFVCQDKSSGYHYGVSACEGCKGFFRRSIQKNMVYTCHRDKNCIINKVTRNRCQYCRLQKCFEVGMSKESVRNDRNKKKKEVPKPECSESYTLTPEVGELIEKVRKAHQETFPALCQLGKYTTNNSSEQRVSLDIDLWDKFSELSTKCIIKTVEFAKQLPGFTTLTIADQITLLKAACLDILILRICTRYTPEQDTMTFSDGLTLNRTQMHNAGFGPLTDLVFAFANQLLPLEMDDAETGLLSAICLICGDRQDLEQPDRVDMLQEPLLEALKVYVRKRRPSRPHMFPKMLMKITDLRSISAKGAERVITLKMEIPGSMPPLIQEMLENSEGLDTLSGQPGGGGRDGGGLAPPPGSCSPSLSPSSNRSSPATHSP

[2] = FLAG salvage regimen plus oral 150 mg per day for 28 days

In the case of `CC(C=CC1=C(C)C(=O)CCC1(C)C)=CC=CC(C)=CCO` [4-oxo-retinol], the response ([1]; FLAG salvage regimen plus oral 75 mg per day for 18 days and calcitriol 50 mcg per day) was “complete remission”, the “duration of remission before relapse” value [1, 2] was “one” and the lymph nodes [1, 2] was “shrinkage of the lumph nodes to normal size”. The “response (blood and bone marrow)” value [1, 2] was “complete remission” and the RARα-mediated transactivation (human RARα) was “potently induced transactivation”.
